From patent US4207418A, “1,2-Ethanediamine salts of nalidixic acid” (Sterling Drug Inc., priority 1978, dated 1980)
≈ marks a conversion by molar mass, not a printed value. Where a name gives a salt, the structure may show the parent alone. Read-outs that look alike come from different tables or passages of the source.

Legend:
Escherichia coli (Vogel) [1] = assay: Mouse protection test, systemic Escherichia coli (Vogel) infection in mice; assay type: in vivo, Swiss Webster, female; conditions: for ED50: Escherichia coli, 168 h, read-out: ED50 (the dose protecting 50% of the mice); for ED50 / ED50 (the dose protecting 50% of the mice): dosed 30 minutes after infection, 7 days; for ED50 (the dose protecting 50% of the mice): 10080 min
Description: (§1) Nalidixic acid, the parent acid, and its 1,2-ethanediamine (1:1) salt were tested in vitro against ten screening organisms and they were also tested against the standard E. coli (Vogel) systemic infection in mice, the latter in vivo study being carried out using three different routes of administration: oral, subcutaneous and intravenous. The materials and methods used in the comparative antibacterial tests are given in the following paragraphs.
(§2) The parent nalidixic acid was solublized by adding 1.0 ml. of 1 N NaOH to the crystalline acid and water was added to a concentration of 1000 mcg./ml. for the in vitro study or saline to a concentration of 2.5 or 5.0 mg./ml. for the in vivo study. A stock solution of nalidixic acid 1,2-ethanediamine (1:1) salt was prepared from the 1:2 salt according to Example 5 above (refer to Solution 5B); in saline this solution has a concentration equivalent of the nalidixic acid of 47.6 mg./ml. for in vivo studies. A concentration equivalent of the acid of 1000 mcg./ml. for the in vitro studies was obtained by dilution of the stock solution.
Culture for In Vivo Study Escherichia coii (Vogel)
Mice White, Swiss Webster, female, […].
The E. coli culture was grown in Brain Heart Infusion broth at 37° C. for sixteen hours after which 0.1 ml. was removed and inoculated into 10 ml. of Brain Heart Infusion broth and incubated for five hours. […] All mice to be infected were inoculated intraperitoneally with 0.5 ml. of the inoculum.
After inoculation of the organism, the mice were divided into groups of ten. Medication was given to one group of mice at each dose level of each of the […] drugs by each of the three routes of administration. Two groups (twenty mice) were used as infection controls. The drugs were administered thirty minutes after the mice were infected. The dose of drug for i.v. injection was contained in 0.2 ml. Those for oral or subcutaneous administration were contained in 0.5 ml. The mice were examined and deaths were recorded for seven days after inoculation. The ED50 's (the dose protecting 50% of the mice) were calculated using a modified Reed and Muench method.

Escherichia coli (Vogel) [2] = assay: In vitro tube dilution test (MIC), Escherichia coli (Vogel); assay type: cell-based; conditions: 18-20 hours at 37° C., read-out: Minimal Inhibitory Concentration
Description: as §1
as §2, with “solution. […]” for “solution.”
(§3) The compounds were tested for antimicrobial activity by a single-row tube dilution method. […] Minimal inhibitory concentrations (lowest drug concentrations showing no visible growth, designated MIC) were read after eighteen-twenty hours incubation at 37° C. The molds were read after five days incubation at 25° C.

[3] = system: Klebsiella pneumoniae 39645; assay: In vitro tube dilution test (MIC), Klebsiella pneumoniae 39645; assay type: cell-based; conditions: 18-20 hours at 37° C.
Description: as §1
as §2, with “solution. […]” for “solution.”
as §3

[4] = system: Staphylococcus aureus (Smith); assay: In vitro tube dilution test (MIC), Staphylococcus aureus (Smith); assay type: cell-based; conditions: 18-20 hours at 37° C.
Description: as §1
as §2, with “solution. […]” for “solution.”
as §3

[5] = system: Streptococcus pyogenes C203; assay: In vitro tube dilution test (MIC), Streptococcus pyogenes C203; assay type: cell-based; conditions: 18-20 hours at 37° C.
Description: as §1
as §2, with “solution. […]” for “solution.”
as §3

Proteus mirabilis MGH-1 = assay: In vitro tube dilution test (MIC), Proteus mirabilis MGH-1; assay type: cell-based
Description: as §1
as §2, with “solution. […]” for “solution.”
as §3

Aspergillus niger 16404 = assay: In vitro tube dilution test (MIC), Aspergillus niger 16404; assay type: cell-based; conditions: 120 h, molds read after five days at 25° C., read-out: Minimal Inhibitory Concentration
Description: as §1
as §2, with “solution. […]” for “solution.”
as §3

Candida albicans 10231 = assay: In vitro tube dilution test (MIC), Candida albicans 10231; assay type: cell-based
Description: as §1
as §2, with “solution. […]” for “solution.”
as §3

[6] = system: Pseudomonas aeruginosa MGH-2; assay: In vitro tube dilution test (MIC), Pseudomonas aeruginosa MGH-2; assay type: cell-based; conditions: 18-20 hours at 37° C.
Description: as §1
as §2, with “solution. […]” for “solution.”
as §3

Proteus vulgaris 9920 = assay: In vitro tube dilution test (MIC), Proteus vulgaris 9920; assay type: cell-based; conditions: 18-20 hours at 37° C.
Description: as §1
as §2, with “solution. […]” for “solution.”
as §3

[7] = system: Trichophyton mentagrophytes 9129; assay: In vitro tube dilution test (MIC), Trichophyton mentagrophytes 9129; assay type: cell-based; conditions: 120 h, molds read after five days at 25° C., read-out: Minimal Inhibitory Concentration
Description: as §1
as §2, with “solution. […]” for “solution.”
as §3

ten screening organisms = assay: In vitro antibacterial tests against ten screening organisms (overall); assay type: cell-based; conditions: in words
Description: as §1
as §2, with “solution. […]” for “solution.”
as §3

[8] = read-out: Minimal Inhibitory Concentration

CCn1cc(C(=O)O)c(=O)c2ccc(C)nc21 [nalidixic acid, 1-ethyl-1,4-dihydro-7-methyl-4-oxo-1,8-naphthyridine-3-carboxylic acid]
ED50 (Escherichia coli (Vogel) [1]; iv, Intravenous): 17.6 mg/kg | ED50 (Escherichia coli (Vogel) [1]; po, Oral): 16.5 mg/kg | ED50 (Escherichia coli (Vogel) [1]; sc, Subcutaneous): 14 mg/kg | MIC (Escherichia coli (Vogel) [2]): 3.9 µg/mL (≈ 16.8 µM) | MIC [3, 8]: 31.3 µg/mL (≈ 135 µM) | MIC [4, 8]: 31.3 µg/mL (≈ 135 µM) | MIC [5, 8]: 250 µg/mL (≈ 1080 µM) | MIC (Proteus mirabilis MGH-1; MGH1, 18-20 hours at 37° C., read-out: Minimal Inhibitory Concentration): 15.6 µg/mL (≈ 67.2 µM) | MIC (Aspergillus niger 16404): 500 µg/mL (≈ 2150 µM) | MIC (Candida albicans 10231; [8]): 500 µg/mL (≈ 2150 µM) | MIC ([6]; Pseudomonas aeruginosa, MGH2, Pseudomonas aeruginosa MGH-2, read-out: Minimal Inhibitory Concentration): 125 µg/mL (≈ 538 µM) | MIC (Proteus vulgaris 9920; [8]): 1 µg/mL (≈ 4.31 µM) | MIC [7]: 500 µg/mL (≈ 2150 µM)

CCn1cc(C(=O)O)c(=O)c2ccc(C)nc21 [1,2-ED Salt, 1,2-ethanediamine (1:1) salt of nalidixic acid]
ED50 (the dose protecting 50% of the mice) (Escherichia coli (Vogel) [1]; Oral): 18.9 mg./kg./dose | ED50 (the dose protecting 50% of the mice) (Escherichia coli (Vogel) [1]; Subcutaneous): 17.6 mg./kg./dose | ED50 's compared with nalidixic acid in the mouse protection test (Escherichia coli (Vogel) [1]; in words): no significant differences | antibacterial activity against in vivo bacterial infections in mice vs. parent nalidixic acid (Escherichia coli (Vogel) [1]; in words): as active antibacterially as the corresponding parent nalidixic acid | Minimal Inhibitory Concentration [3]: 31.3 µg/mL | Minimal Inhibitory Concentration [4]: 31.3 µg/mL | Minimal Inhibitory Concentration [5]: 250 µg/mL | Minimal Inhibitory Concentration (Proteus mirabilis MGH-1; 18-20 hours at 37° C.): 15.6 µg/mL | Minimal Inhibitory Concentration (Candida albicans 10231): 500 µg/mL | antibacterial activity in standard in vitro tests vs. parent nalidixic acid (ten screening organisms): as active antibacterially as the corresponding parent nalidixic acid | in vitro MIC's compared with MIC's of nalidixic acid (ten screening organisms; nine of the ten microorganisms): identical to the MIC's of nalidixic acid against nine of the ten microorganisms examined | Minimal Inhibitory Concentration ([6]; Pseudomonas aeruginosa MGH-2): 62.5 µg/mL | Minimal Inhibitory Concentration (Proteus vulgaris 9920): 1.0 µg/mL
